Assay results as given in PMC9065348 (Frontiers in Pharmacology, 2022).
Like-named read-outs stand apart in the source and are kept apart here. Values belong to the compound of their own block, whether it stands above or below them.

How the values were obtained:
[1] = biological target: T1, CYP2C9 (Homo sapiens, UniProt P11712); settings: Human liver microsomes, cited from earlier work
T1 construct: respectively, were mixed with human liver microsomes; tissue In Vitro Technologies (Noble Park North, VIC, Australia); host or cells: human liver microsomes
T1 sequence (P11712 whole entry): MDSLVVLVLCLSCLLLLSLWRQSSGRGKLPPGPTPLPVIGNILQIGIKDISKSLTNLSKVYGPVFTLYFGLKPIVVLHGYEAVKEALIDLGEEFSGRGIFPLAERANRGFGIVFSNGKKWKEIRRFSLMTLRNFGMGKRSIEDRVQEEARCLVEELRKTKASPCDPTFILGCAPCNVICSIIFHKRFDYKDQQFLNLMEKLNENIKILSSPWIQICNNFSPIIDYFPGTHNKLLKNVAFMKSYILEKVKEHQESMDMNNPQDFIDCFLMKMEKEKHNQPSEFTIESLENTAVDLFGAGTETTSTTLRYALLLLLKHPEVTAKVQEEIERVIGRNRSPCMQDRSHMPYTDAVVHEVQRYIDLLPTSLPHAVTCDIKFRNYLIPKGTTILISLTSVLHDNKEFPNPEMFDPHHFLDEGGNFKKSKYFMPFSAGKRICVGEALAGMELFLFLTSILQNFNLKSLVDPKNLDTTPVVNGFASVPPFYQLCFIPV

[2] = biological target: CYP3A4 (Homo sapiens, UniProt P08684); settings: Human liver microsomes, cited from earlier work
Chain of CYP3A4 (P08684 whole entry): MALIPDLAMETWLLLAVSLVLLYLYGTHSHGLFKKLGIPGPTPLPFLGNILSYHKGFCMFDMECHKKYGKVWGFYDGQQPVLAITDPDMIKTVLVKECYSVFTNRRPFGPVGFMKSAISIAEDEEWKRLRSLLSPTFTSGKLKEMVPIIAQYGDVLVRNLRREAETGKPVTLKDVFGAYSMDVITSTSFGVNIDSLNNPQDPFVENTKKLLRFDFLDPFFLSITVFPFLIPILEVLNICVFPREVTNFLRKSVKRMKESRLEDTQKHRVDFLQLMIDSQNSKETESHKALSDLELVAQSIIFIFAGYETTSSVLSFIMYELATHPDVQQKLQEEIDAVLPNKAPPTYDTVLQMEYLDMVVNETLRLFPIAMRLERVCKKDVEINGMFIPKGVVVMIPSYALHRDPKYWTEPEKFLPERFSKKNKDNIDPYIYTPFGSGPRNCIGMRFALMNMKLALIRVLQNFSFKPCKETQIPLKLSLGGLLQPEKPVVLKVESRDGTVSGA

[3] = test system: hypertension rat model established by L-NAME; assay: Antihypertensive efficacy (tail artery blood pressure) in L-NAME hypertension rat model; type: in vivo, Wistar rats
Method: A total of 48 Wistar rats were treated with L-NAME (60 mg/kg·d^-1) intragastrically for 4 weeks ([[…] al., 2003]; [[…] et al., 2002]; [Ahad et al., 2020a]). Systolic blood pressure (SBP) ≥140 mmHg was considered to be a successful hypertension model and was used to maintain L-NAME treatment until animal death. The blood pressure measurement method was performed as described in previous literature studies and the blood pressure of each rat was determined by the average of 5 measurements by a non-invasive rat tail sphygmomanometer (BP-2006A, Beijing Softron Biotechnology Co., Ltd.) ([Gillis et al., 2020]; [Dias et al., 2021]). This experimental protocol was approved by the Animal Care and Use Committee of Shanghai University of Traditional Chinese Medicine. A total of 36 hypertensive rats and 6 normal rats were included in this experiment. […] A total of 6 normal rats were assigned to a blank group without any treatment. Following the treatment of the rats for 2 weeks, the blood pressure of their tail artery was measured.

[4] = test system: hypertension rat model established with L-NAME; design: method as in Ahad et al., 2020b; settings: within 2 h following 10 mg kg^−1 LOS; rat model after 2 weeks L-NAME; ref Ahad et al., 2020b; cited from earlier work
[5] = Pharmacokinetics of LOS and EXP3174 in the hypertension rat model (LC-MS); type: in vivo, Wistar rats; settings: hypertensive rats (L-NAME); for AUC(0-inf) / AUC(0-t) / Cmax / MRT / Tmax / half-life: Wistar, rat, plasma, po, 10 mg/kg/day
Method: All samples were centrifuged at 3,000 rpm for 10 min, and the upper plasma was collected for Liquid Chromatography Mass Spectrometry (LC-MS) analysis. The LOS and EXP3174 in rat serum were quantitatively determined by a validated LC-MS method. The LC-MS system contained a Q/Exactive Quadrupole/Electrostatic Field Track Well High Resolution Mass Spectrometer (Thermo Fisher Scientific, Waltham, MA, United States) and a Dionex Ultimate 3,000 High-pressure liquid chromatography (Dionex, Subsidiary, CA, United States) system equipped with an electro-spray ionization source. […] The mobile phase included 0.1% formic acid aqueous solution (C) and acetonitrile (D) at a flow rate of 0.3 ml/min. The proportion of phase B in the mobile phase was adjusted from 40 to 5% at 0-2 min, 5% at 2-4 min, 40% at 4-5 min. The parameters of mass spectrometry for each analyte were shown in Supplementary Figure S1 . The collected data were analyzed through Xcalibur 4.1 software. The serum drug concentration data in each sample were obtained by calculation. The pharmacokinetic parameters corresponding to each rat were calculated using the “non-compartmental model” of the “PK solution 2.0TM (Summit Research Services, United States)” pharmacokinetic software. The half-life (t 1/2 ), peak drug concentration (C max), peak time (T max), the area under the plasma concentration-time curve (AUC) from time zero to the time of the last measurable plasma concentration (AUC 0-t ), AUC from time zero to infinity (AUC 0-∞ ), mean residence time (MRT), clearance (CL), apparent volume of distribution (V d ), and relative bioavailability (Frel) were calculated.

[6] = test system: CYP2C9; assay: Western blot of rat liver tissue, CYP2C9 protein expression; type: in vivo; settings: liver of hypertensive rats; comparison between all groups; p > 0.05
Text: The immunoreactive bands were detected by chemiluminescence.

[7] = cited from earlier work
[8] = Pharmacokinetics of LOS and EXP3174 in non-hypertensive Wistar rats (LC-MS); type: in vivo; settings: Wistar rats without L-NAME
Method: All groups were treated for 2 weeks and the blood collection time and methods of serum management were the same as those mentioned above. The LOS and EXP3174 in rat serum were quantitatively determined by a validated LC-MS method. The LC-MS system contained a Q/Exactive Quadrupole/Electrostatic Field Track Well High Resolution Mass Spectrometer (Thermo Fisher Scientific, Waltham, MA, United States) and a Dionex Ultimate 3,000 High-pressure liquid chromatography (Dionex, Subsidiary, CA, United States) system equipped with an electro-spray ionization source. […] The mobile phase included 0.1% formic acid aqueous solution (C) and acetonitrile (D) at a flow rate of 0.3 ml/min. The proportion of phase B in the mobile phase was adjusted from 40 to 5% at 0–2 min, 5% at 2–4 min, 40% at 4–5 min. The parameters of mass spectrometry for each analyte were shown in Supplementary Figure S1 . The collected data were analyzed through Xcalibur 4.1 software. The serum drug concentration data in each sample were obtained by calculation. The pharmacokinetic parameters corresponding to each rat were calculated using the “non-compartmental model” of the “PK solution 2.0TM (Summit Research Services, United States)” pharmacokinetic software. The half-life (t 1/2 ), peak drug concentration (C max), peak time (T max), the area under the plasma concentration-time curve (AUC) from time zero to the time of the last measurable plasma concentration (AUC 0-t ), AUC from time zero to infinity (AUC 0-∞ ), mean residence time (MRT), clearance (CL), apparent volume of distribution (V d ), and relative bioavailability (Frel) were calculated.

[9] = 4 weeks of L-NAME 60 mg/kg/d intragastric, model group
[10] = 6 weeks of continuous L-NAME, model group
[11] = vs model group, 2 weeks treatment, SMI 6 ml/kg/d tail vein (SMI-H), LOS 10 mg/kg/d intragastric
[12] = LOS 10 mg/kg/d ig + SMI 2 ml/kg/d tail vein (SMI-L+LOS group)
[13] = LOS 10 mg/kg/d ig + SMI 4 ml/kg/d tail vein (SMI-M+LOS group)
[14] = LOS 10 mg/kg/d ig + SMI 6 ml/kg/d tail vein (SMI-H+LOS group)
[15] = LOS 10 mg/kg/d ig alone (LOS group)
[16] = LOS 10 mg/kg/d ig + SMI 6 ml/kg/d tail vein (BLANK + SMI-H+LOS group)
[17] = LOS 10 mg/kg/d ig alone (BLANK + LOS group)
[18] = rat, serum, po, LOS 10 mg/kg/d ig alone (BLANK + LOS group)

SMILES: CC(C)=CCC[C@](C)(O[C@@H]1O[C@H](CO[C@@H]2O[C@H](CO)[C@@H](O)[C@H](O)[C@H]2O)[C@@H](O)[C@H](O)[C@H]1O)[C@H]1CC[C@]2(C)[C@@H]1[C@H](O)C[C@@H]1[C@@]3(C)CC[C@H](O[C@@H]4O[C@H](CO)[C@@H](O)[C@H](O)[C@H]4O[C@@H]4O[C@H](CO)[C@@H](O)[C@H](O)[C@H]4O)C(C)(C)[C@@H]3CC[C@]12C [Ginsenoside Rb1]
Effects on CYP2C9 ([1]; ref Hao et al. (2008)): Inhibition
Effects on CYP2C9 ([1]; ref He and Edeki, (2004)): Inhibition
Effects on CYP3A4 ([2]; ref Hao et al. (2008)): Inhibition
Effects on CYP3A4 ([2]; ref He and Edeki, (2004)): Inhibition

SMILES: COC(=O)[C@@H](N)CCCNC(N)=N[N+](=O)[O-] [L-NAME, N (omega)-nitro-L-arginine methyl ester]
increase in DBP [3, 9]: 34.83 ± 8.82 mmHg
increase in MAP [3, 9]: 36.00 ± 6.10 mmHg
increase in SBP [3, 9]: 37.83 ± 8.52 mmHg
average increase in DBP [3, 10]: 42.33 ± 15.34 mmHg
average increase in MAP [3, 10]: 46.00 ± 13.11 mmHg
average increase in SBP [3, 10]: 50.50 ± 6.09 mmHg

AUC(0-inf) [5, 12]: 1210 ng·h/mL
AUC(0-t) [5, 12]: 1110 ng·h/mL
Cmax [5, 12]: 125 ± 53.6 ng/mL
MRT [5, 12]: 8.54 ± 1.8 h
Tmax [5, 12]: 2.2 ± 0.84 h
half-life [5, 12]: 404 ± 38.4 min
AUC(0-inf) [5, 13]: 1430 ng·h/mL
AUC(0-t) [5, 13]: 1250 ng·h/mL
Cmax [5, 13]: 132 ± 35 ng/mL
MRT [5, 13]: 11.3 ± 2.22 h
Tmax [5, 13]: 1.5 ± 0.55 h
half-life [5, 13]: 505 ± 85.8 min
AUC(0-inf) [5, 14]: 1420 ng·h/mL
AUC(0-t) [5, 14]: 1240 ng·h/mL
Cmax [5, 14]: 156 ± 64.1 ng/mL
MRT [5, 14]: 12.1 ± 1.02 h
Tmax [5, 14]: 2.33 ± 0.52 h
half-life [5, 14]: 595 ± 57.6 min
AUC(0-inf) [5, 15]: 841 ± 232 ng·h/mL
AUC(0-t) [5, 15]: 787 ± 213 ng·h/mL
Cmax [5, 15]: 112 ± 41.7 ng/mL
MRT [5, 15]: 8.18 ± 0.89 h
Tmax [5, 15]: 2 ± 0.89 h
half-life [5, 15]: 371 ± 25.8 min
CL [5, 12]: 27,497.47 ± 14,702.73 ml/h/kg
Vd [5, 12]: 264,405.76 ± 142,122.69 ml/kg
CL [5, 13]: 17,964.40 ± 3,185.66 ml/h/kg
Vd [5, 13]: 217,016.60 ± 45,076.20 ml/kg
CL [5, 14]: 19,127.96 ± 5,549.27 ml/h/kg
Vd [5, 14]: 277,463.55 ± 98,140.99 ml/kg
CL [5, 15]: 32,042.39 ± 10,551.59 ml/h/kg
Vd [5, 15]: 282,441.65 ± 73,729.85 ml/kg
increase of AUC 0-t compared with LOS group ([5]; SMI-H + LOS group (SMI 6 ml/kg/d)): 58.1%
CYP2C9 expression levels [6]: no significant differences
CL [8, 16]: 5,327.27 ± 1,010.94 ml/h/kg
Vd [8, 16]: 67,493.75 ± 17,745.97 ml/kg
CL [8, 17]: 10,392.48 ± 1,296.50 ml/h/kg
Vd [8, 17]: 90,573.23 ± 13,394.06 ml/kg
AUC(0-inf) [8, 18]: 975 ± 121 ng·h/mL
AUC(0-t) [8, 18]: 911 ± 115 ng·h/mL
Cmax [8, 18]: 108 ± 6.26 ng/mL
MRT [8, 18]: 8.6 ± 0.54 h
Tmax [8, 18]: 1.67 ± 0.52 h
half-life [8, 18]: 362 ± 11.4 min
SMILES: CCCCc1nc(Cl)c(CO)n1Cc1ccc(-c2ccccc2-c2nn[nH]n2)cc1 [LOS, losartan potassium]
decrease in SBP [4]: 14.7%
decrease in DBP [3, 11]: 12.14%
decrease in MAP [3, 11]: 11.92%
decrease in SBP [3, 11]: 6.32%
increase of AUC 0-t of LOS ([7]; with Ginkgo leaf tablets, ref Dong et al., 2018): 70%
increase of AUC 0-t of LOS ([7]; with Glimepirea, ref Chen et al., 2015): 11.18%
increase of AUC of LOS ([7]; with licochalcon A, ref Choi et al., 2013): 33.38%

SMILES: CC(C)=CCC[C@](C)(O[C@@H]1O[C@H](CO)[C@@H](O)[C@H](O)[C@H]1O)[C@H]1CC[C@]2(C)[C@@H]1[C@H](O)C[C@@H]1[C@@]3(C)CC[C@H](O)C(C)(C)[C@@H]3[C@@H](O[C@@H]3O[C@H](CO)[C@@H](O)[C@H](O)[C@H]3O[C@@H]3O[C@@H](C)[C@H](O)[C@@H](O)[C@H]3O)C[C@]12C [Re, Ginsenoside Re]
Effects on CYP2C9 ([1]; ref Hao et al. (2008)): Inhibition
Effects on CYP3A4 ([2]; ref Hao et al. (2008)): Inhibition

SMILES: CC(C)=CCC[C@](C)(O[C@@H]1O[C@H](CO)[C@@H](O)[C@H](O)[C@H]1O)[C@H]1CC[C@]2(C)[C@@H]1[C@H](O)C[C@@H]1[C@@]3(C)CC[C@H](O)C(C)(C)[C@@H]3[C@@H](O[C@@H]3O[C@H](CO)[C@@H](O)[C@H](O)[C@H]3O)C[C@]12C [Rg1, Ginsenoside Rg1]
Effects on CYP2C9 ([1]; ref Hao et al. (2008)): Inhibition
Effects on CYP3A4 ([2]; ref Hao et al. (2008)): Inhibition

SMILES: COc1cc2c(c(OC)c1OC)-c1c(cc(OC)c(OC)c1OC)C[C@](C)(O)[C@@H](C)C2 [schizandrin]
Effects on CYP3A4 ([2]; ref Cao et al. (2009)): Inhibition
